According to PubChem BioAssay (NCI):
Values joined by “and” are separate entries in the source; they are usually repeats but may differ in a detail not shown here. Equal values may be shown once.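 Tested at 5 concentrations; 48 h exposure; 96-well plates; endpoints linearly interpolated, else capped at highest concentration. GI50 is the concentration that inhibits growth by half. The concentration for full growth arrest is given as TGI.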

Experiments:
Assay in all cases: inhibition of tumour cell growth, NCI panel, 48 h
786-0 renal = system: 786-0 renal
A498 renal = system: A498 renal
A549 NSCLC = system: A549 NSCLC
ACHN renal = system: ACHN renal
BT-549 breast = system: BT-549 breast
CAKI-1 renal = system: CAKI-1 renal
CCRF-CEM leukemia = system: CCRF-CEM leukemia
COLO 205 colon = system: COLO 205 colon
DU-145 prostate = system: DU-145 prostate
EKVX NSCLC = system: EKVX NSCLC
HCC-2998 colon = system: HCC-2998 colon
HCT-116 colon = system: HCT-116 colon
HCT-15 colon = system: HCT-15 colon
HL-60(TB) leukemia = system: HL-60(TB) leukemia
HOP-62 NSCLC = system: HOP-62 NSCLC
HOP-92 NSCLC = system: HOP-92 NSCLC
HS 578T breast = system: HS 578T breast
HT29 colon = system: HT29 colon
IGROV1 ovarian = system: IGROV1 ovarian
K-562 leukemia = system: K-562 leukemia
KM12 colon = system: KM12 colon
LOX IMVI melanoma = system: LOX IMVI melanoma
M14 melanoma = system: M14 melanoma
MALME-3M melanoma = system: MALME-3M melanoma
MCF7 breast = system: MCF7 breast
MDA-MB-231 breast = system: MDA-MB-231 breast
MDA-MB-435 = system: MDA-MB-435
MOLT-4 leukemia = system: MOLT-4 leukemia
NCI-H226 lung = system: NCI-H226 lung
NCI-H23 lung = system: NCI-H23 lung
NCI-H460 lung = system: NCI-H460 lung
NCI-H522 lung = system: NCI-H522 lung
NCI/ADR-RES ovarian = system: NCI/ADR-RES ovarian
OVCAR-3 ovarian = system: OVCAR-3 ovarian
OVCAR-4 ovarian = system: OVCAR-4 ovarian
OVCAR-5 ovarian = system: OVCAR-5 ovarian
OVCAR-8 ovarian = system: OVCAR-8 ovarian
PC-3 prostate = system: PC-3 prostate
RPMI-8226 leukemia = system: RPMI-8226 leukemia
RXF 393 renal = system: RXF 393 renal
SF-268 CNS = system: SF-268 CNS
SF-295 CNS = system: SF-295 CNS
SF-539 CNS = system: SF-539 CNS
SK-MEL-2 melanoma = system: SK-MEL-2 melanoma
SK-MEL-28 melanoma = system: SK-MEL-28 melanoma
SK-MEL-5 melanoma = system: SK-MEL-5 melanoma
SK-OV-3 ovarian = system: SK-OV-3 ovarian
SN12C renal = system: SN12C renal
SNB-19 CNS = system: SNB-19 CNS
SNB-75 CNS = system: SNB-75 CNS
SR leukemia = system: SR leukemia
SW-620 colon = system: SW-620 colon
T-47D breast = system: T-47D breast
TK-10 renal = system: TK-10 renal
U251 CNS = system: U251 CNS
UACC-257 melanoma = system: UACC-257 melanoma
UACC-62 melanoma = system: UACC-62 melanoma
UO-31 renal = system: UO-31 renal

## CC(C)Nc1cc(-c2c[nH]c(C(=O)N[C@H](CO)c3cccc(Cl)c3)c2)c(Cl)cn1
786-0 renal
  GI50: 2.85 µM and 3.23 µM
  TGI: 18.3 µM and > 10 µM
A498 renal
  GI50: 0.084 µM and 0.255 µM
  TGI: 1.41 µM and 1.95 µM
A549 NSCLC
  GI50: 2.33 µM and 0.919 µM
  TGI: 20.3 µM and > 10 µM
ACHN renal
  GI50: 2.24 µM and 2.08 µM
  TGI: 14.9 µM and > 10 µM
BT-549 breast
  GI50: 3.19 µM and > 5.25 µM
  TGI: 15.7 µM and > 10 µM
CAKI-1 renal
  GI50: 1.17 µM and 1.87 µM
  TGI: 19.1 µM and > 10 µM
CCRF-CEM leukemia
  GI50: 4.09 µM and 4.7 µM
  TGI: > 100 µM
COLO 205 colon
  GI50: 0.104 µM and 0.076 µM
  TGI: 3.06 µM and 1.59 µM
DU-145 prostate
  GI50: 5.96 µM and 9.49 µM
  TGI: 20.4 µM and > 10 µM
EKVX NSCLC
  GI50: 1.97 µM and 0.783 µM
  TGI: 15.4 µM and > 10 µM
HCC-2998 colon
  GI50: 0.19 µM and 0.209 µM
  TGI: 13.8 µM and > 10 µM
HCT-116 colon
  GI50: 0.154 µM and 0.162 µM
  TGI: 11.4 µM and > 10 µM
HCT-15 colon
  GI50: 2.89 µM and 2.68 µM
  TGI: 14.4 µM and > 10 µM
HL-60(TB) leukemia
  GI50: 0.378 µM and 0.272 µM
  TGI: 4.67 µM and > 10 µM
HOP-62 NSCLC
  GI50: 3.93 µM and 0.479 µM
  TGI: 26.4 µM and > 10 µM
HOP-92 NSCLC
  GI50: 0.312 µM and 0.233 µM
  TGI: 2.84 µM and 1.81 µM
HS 578T breast
  GI50: 4.32 µM and > 9.06 µM
  TGI: 60.5 µM and > 10 µM
HT29 colon
  GI50: 0.0894 µM and 0.0951 µM
  TGI: 11.6 µM and > 10 µM
IGROV1 ovarian
  GI50: 0.516 µM and 0.366 µM
  TGI: 20.5 µM and > 10 µM
K-562 leukemia
  GI50: 3.35 µM
  TGI: > 10 µM
KM12 colon
  GI50: 0.751 µM and 0.444 µM
  TGI: 15.5 µM and > 10 µM
LOX IMVI melanoma
  GI50: 0.157 µM and 0.316 µM
  TGI: 12.8 µM and > 10 µM
M14 melanoma
  GI50: 0.101 µM
  TGI: > 2.58 µM
MALME-3M melanoma
  GI50: 0.0249 µM and 0.0475 µM
  TGI: 0.149 µM
MCF7 breast
  GI50: 2.16 µM and 1.62 µM
  TGI: 19.1 µM and > 10 µM
MDA-MB-231 breast
  GI50: 1.67 µM and 1.02 µM
  TGI: 13.6 µM and > 8.38 µM
MDA-MB-435
  GI50: 0.312 µM and 0.335 µM
  TGI: 14.9 µM and > 10 µM
MOLT-4 leukemia
  GI50: 2.55 µM and 2.57 µM
  TGI: 19.6 µM and > 10 µM
NCI-H226 lung
  GI50: 3.17 µM and > 3.67 µM
  TGI: 24.2 µM and > 10 µM
NCI-H23 lung
  GI50: 0.308 µM and 0.258 µM
  TGI: 16 µM and > 10 µM
NCI-H460 lung
  GI50: 1.35 µM and 1.05 µM
  TGI: 15.8 µM and > 10 µM
NCI-H522 lung
  GI50: 2.33 µM and 2.35 µM
  TGI: 19.8 µM and > 10 µM
NCI/ADR-RES ovarian
  GI50: 5.57 µM and > 7.85 µM
  TGI: 24.4 µM and > 10 µM
OVCAR-3 ovarian
  GI50: 4.66 µM and > 9.46 µM
  TGI: 18.8 µM and > 10 µM
OVCAR-4 ovarian
  GI50: 3.68 µM and > 6.63 µM
  TGI: 20.7 µM and > 10 µM
OVCAR-5 ovarian
  GI50: 0.259 µM and 0.187 µM
  TGI: 16.2 µM and > 10 µM
OVCAR-8 ovarian
  GI50: 7.75 µM and 8.82 µM
  TGI: 24.3 µM and > 10 µM
PC-3 prostate
  GI50: 3.96 µM and > 5.54 µM
  TGI: 18.4 µM and > 10 µM
RPMI-8226 leukemia
  GI50: 3.09 µM and 1.14 µM
  TGI: 45.9 µM and > 10 µM
RXF 393 renal
  GI50: 2.14 µM and 1.06 µM
  TGI: 15 µM and > 10 µM
SF-268 CNS
  GI50: 4.46 µM and > 7.71 µM
  TGI: 24.5 µM and > 10 µM
SF-295 CNS
  GI50: 4.22 µM and > 8.07 µM
  TGI: 18.1 µM and > 10 µM
SF-539 CNS
  GI50: 6.04 µM
  TGI: 20.2 µM and > 10 µM
SK-MEL-2 melanoma
  GI50: 0.18 µM and 0.179 µM
  TGI: 0.75 µM and 1.41 µM
SK-MEL-28 melanoma
  GI50: 0.126 µM and 0.0718 µM
SK-MEL-5 melanoma
  GI50: 0.64 µM and 0.752 µM
  TGI: 7.82 µM and 9.83 µM
SK-OV-3 ovarian
  GI50: 3.23 µM and > 7.67 µM
  TGI: 18 µM and > 10 µM
SN12C renal
  GI50: 4.04 µM and > 4.03 µM
  TGI: 20.9 µM and > 10 µM
SNB-19 CNS
  GI50: 4.84 µM
  TGI: 20.6 µM and > 10 µM
SNB-75 CNS
  GI50: 4.5 µM and > 5.45 µM
  TGI: 19.8 µM and > 10 µM
SR leukemia
  GI50: 3.38 µM and 3.66 µM
  TGI: 40.5 µM and > 10 µM
SW-620 colon
  GI50: 0.249 µM and 0.296 µM
  TGI: 16.7 µM and > 10 µM
T-47D breast
  GI50: 1.77 µM and > 5.23 µM
  TGI: 16.8 µM and > 10 µM
TK-10 renal
  GI50: 0.795 µM and 0.36 µM
  TGI: 18.6 µM and > 10 µM
U251 CNS
  GI50: 1.71 µM and 1.09 µM
  TGI: 18 µM and > 10 µM
UACC-257 melanoma
  GI50: 0.0732 µM
  TGI: 0.519 µM
UACC-62 melanoma
  GI50: 0.0826 µM and 0.13 µM
  TGI: 12.3 µM and > 10 µM
UO-31 renal
  GI50: 0.986 µM and 0.838 µM
  TGI: 14.5 µM and > 10 µM

## CC(=O)OC12C3C4C1C1C2C3C41OC(C)=O (stereo not given)
786-0 renal
  TGI: > 100 µM
A498 renal
  TGI: > 100 µM
A549 NSCLC
  TGI: > 100 µM
ACHN renal
  TGI: > 100 µM
BT-549 breast
  TGI: > 100 µM
CAKI-1 renal
  TGI: > 100 µM
CCRF-CEM leukemia
  TGI: > 100 µM
COLO 205 colon
  TGI: > 100 µM
DU-145 prostate
  TGI: > 100 µM
EKVX NSCLC
  TGI: > 100 µM
HCC-2998 colon
  TGI: > 100 µM
HCT-116 colon
  TGI: > 100 µM
HCT-15 colon
  TGI: > 100 µM
HL-60(TB) leukemia
  TGI: > 100 µM
HOP-62 NSCLC
  TGI: > 100 µM
HOP-92 NSCLC
  TGI: > 100 µM
HT29 colon
  TGI: > 100 µM
IGROV1 ovarian
  TGI: > 100 µM
K-562 leukemia
  TGI: > 100 µM
KM12 colon
  TGI: > 100 µM
LOX IMVI melanoma
  TGI: > 100 µM
M14 melanoma
  TGI: > 100 µM
MCF7 breast
  TGI: > 100 µM
MDA-MB-231 breast
  TGI: > 100 µM
MDA-MB-435
  TGI: > 100 µM
MOLT-4 leukemia
  TGI: > 100 µM
NCI-H226 lung
  TGI: > 100 µM
NCI-H23 lung
  TGI: > 100 µM
NCI-H460 lung
  TGI: > 100 µM
NCI-H522 lung
  TGI: > 100 µM
NCI/ADR-RES ovarian
  TGI: > 100 µM
OVCAR-3 ovarian
  TGI: > 100 µM
OVCAR-4 ovarian
  TGI: > 100 µM
OVCAR-5 ovarian
  TGI: > 100 µM
OVCAR-8 ovarian
  TGI: > 100 µM
PC-3 prostate
  TGI: > 100 µM
RPMI-8226 leukemia
  TGI: > 100 µM
RXF 393 renal
  TGI: > 100 µM
SF-268 CNS
  TGI: > 100 µM
SF-295 CNS
  TGI: > 100 µM
SF-539 CNS
  TGI: > 100 µM
SK-MEL-2 melanoma
  TGI: > 100 µM
SK-MEL-28 melanoma
  TGI: > 100 µM
SK-MEL-5 melanoma
  TGI: > 100 µM
SK-OV-3 ovarian
  TGI: > 100 µM
SN12C renal
  TGI: > 100 µM
SNB-75 CNS
  TGI: > 100 µM
SR leukemia
  TGI: > 100 µM
SW-620 colon
  TGI: > 100 µM
T-47D breast
  TGI: > 100 µM
TK-10 renal
  TGI: > 100 µM
U251 CNS
  TGI: > 100 µM
UACC-257 melanoma
  TGI: > 100 µM
UACC-62 melanoma
  TGI: > 100 µM
UO-31 renal
  TGI: > 100 µM
